# Measured values from publication PMC5218480 (PLoS ONE, 2017).
# Tested on: MV-4-11 cells
# Assay: Gene expression microarray analysis (Affymetrix PrimeView) and GSEA
# Type: cell-based, human
# Parameters: RFU PODN (11730768_x_at) / Fold change /veh PODN (11730768_x_at) / RFU LINC00158 (11744669_a_at) / Fold change /veh LINC00158 (11744669_a_at) / RFU DUSP10 (11751237_a_at) / Fold change /veh DUSP10 (11751237_a_at) / RFU ID3 (11757404_x_at) / Fold change /veh ID3 (11757404_x_at) / RFU PLEKHG5 (11737974_s_at) / Fold change /veh PLEKHG5 (11737974_s_at) / RFU LRRC4B (11730491_at) / Fold change /veh LRRC4B (11730491_at) / RFU GIMAP4 (11747438_a_at) / Fold change /veh GIMAP4 (11747438_a_at) / RFU KRT8 (11758183_x_at) / Fold change /veh KRT8 (11758183_x_at) / RFU CNN1 (11734310_a_at) / Fold change /veh CNN1 (11734310_a_at) / RFU VPS37D (11726825_at) / Fold change /veh VPS37D (11726825_at) / RFU C10orf10 (11716522_x_at) / Fold change /veh C10orf10 (11716522_x_at) / RFU KIR2DL2 /// KIR2DL4 /// KIR2DL5A /// KIR2DL5B /// KIR2DS1 /// KIR2DS2 /// KIR2DS3 /// KIR2DS4 /// KIR3DL3 /// KIR3DL3 /// KIR3DS1 (11738374_at) / Fold change /veh KIR2DL2 /// KIR2DL4 /// KIR2DL5A /// KIR2DL5B /// KIR2DS1 /// KIR2DS2 /// KIR2DS3 /// KIR2DS4 /// KIR3DL3 /// KIR3DL3 /// KIR3DS1 (11738374_at) / RFU C1QL1 (11718748_at) / Fold change /veh C1QL1 (11718748_at) / RFU TMPRSS4 (11747572_a_at) / Fold change /veh TMPRSS4 (11747572_a_at) / RFU HAMP (11756126_x_at) / Fold change /veh HAMP (11756126_x_at) / RFU RNFT2 (11725882_a_at) / Fold change /veh RNFT2 (11725882_a_at) / RFU NR4A2 (11747474_a_at) / Fold change /veh NR4A2 (11747474_a_at) / RFU ABCC12 (11746883_a_at) / Fold change /veh ABCC12 (11746883_a_at) / RFU TMEM136 (11760407_x_at) / Fold change /veh TMEM136 (11760407_x_at) / RFU CLDN22 /// WWC2 (11732394_at) / Fold change /veh CLDN22 /// WWC2 (11732394_at) / RFU HLA-DPB1 (11760878_x_at) / Fold change /veh HLA-DPB1 (11760878_x_at) / RFU SPINT1 (11716480_a_at) / Fold change /veh SPINT1 (11716480_a_at) / RFU GAP43 (11754022_s_at) / Fold change /veh GAP43 (11754022_s_at) / RFU A4GNT (11735810_at) / Fold change /veh A4GNT (11735810_at) / RFU PRB3 (11715151_x_at) / Fold change /veh PRB3 (11715151_x_at) / RFU TUBB4B (11761932_at) / Fold change /veh TUBB4B (11761932_at) / RFU CAPN14 (11732068_a_at) / Fold change /veh CAPN14 (11732068_a_at) / RFU TMCC2 (11721928_a_at) / Fold change /veh TMCC2 (11721928_a_at) / RFU IRGQ (11745062_a_at) / Fold change /veh IRGQ (11745062_a_at) / RFU FAM174B (11720279_a_at) / Fold change /veh FAM174B (11720279_a_at) / RFU TMPRSS4 (11748680_a_at) / Fold change /veh TMPRSS4 (11748680_a_at) / RFU FAM212B (11763350_a_at) / Fold change /veh FAM212B (11763350_a_at) / RFU PLEKHG5 (11743358_a_at) / Fold change /veh PLEKHG5 (11743358_a_at) / RFU ZSCAN30 (11745921_a_at) / Fold change /veh ZSCAN30 (11745921_a_at) / RFU CMKLR1 (11741424_a_at) / Fold change /veh CMKLR1 (11741424_a_at) / RFU LOC101060620 /// MAPK8IP1 (11723275_at) / Fold change /veh LOC101060620 /// MAPK8IP1 (11723275_at) / RFU SPTSSB (11747773_x_at) / Fold change /veh SPTSSB (11747773_x_at) / RFU PRSS12 (11739890_at) / Fold change /veh PRSS12 (11739890_at) / RFU BIN1 (11741810_x_at) / Fold change /veh BIN1 (11741810_x_at) / RFU WNT11 (11732464_a_at) / Fold change /veh WNT11 (11732464_a_at) / RFU C10orf10 (11716521_a_at) / Fold change /veh C10orf10 (11716521_a_at) / RFU C5orf56 (11738089_at) / Fold change /veh C5orf56 (11738089_at) / RFU CYB561 (11721691_x_at) / Fold change /veh CYB561 (11721691_x_at) / RFU ANKRD19P (11752326_a_at) / Fold change /veh ANKRD19P (11752326_a_at) / RFU OR2T12 /// OR2T33 /// OR2T8 (11738714_s_at) / Fold change /veh OR2T12 /// OR2T33 /// OR2T8 (11738714_s_at) / RFU VCAN (11748164_a_at) / Fold change /veh VCAN (11748164_a_at) / RFU JSRP1 (11732532_at) / Fold change /veh JSRP1 (11732532_at) / RFU KRTAP10-11 (11738290_x_at) / Fold change /veh KRTAP10-11 (11738290_x_at) / RFU MYO3A (11730013_a_at) / Fold change /veh MYO3A (11730013_a_at) / RFU EBF3 (11725865_a_at) / Fold change /veh EBF3 (11725865_a_at) / RFU CAMK2N1 (11719241_x_at) / Fold change /veh CAMK2N1 (11719241_x_at) / RFU C5orf56 (11738088_a_at) / Fold change /veh C5orf56 (11738088_a_at) / RFU OLFML3 (11715873_a_at) / Fold change /veh OLFML3 (11715873_a_at) / RFU LOC100653217 /// NTM (11731650_a_at) / Fold change /veh LOC100653217 /// NTM (11731650_a_at) / RFU MAPK11 (11762145_a_at) / Fold change /veh MAPK11 (11762145_a_at) / RFU FIZ1 (11724087_x_at) / Fold change /veh FIZ1 (11724087_x_at) / RFU OASL (11726364_x_at) / Fold change /veh OASL (11726364_x_at) / RFU SOX15 (11748057_x_at) / Fold change /veh SOX15 (11748057_x_at) / RFU CD79A (11719716_a_at) / Fold change /veh CD79A (11719716_a_at) / RFU HIST1H1D (11736915_at) / Fold change /veh HIST1H1D (11736915_at) / RFU CASKIN2 (11723855_a_at) / Fold change /veh CASKIN2 (11723855_a_at) / RFU LOC730098 (11760151_x_at) / Fold change /veh LOC730098 (11760151_x_at) / RFU OR4N2 (11742367_at) / Fold change /veh OR4N2 (11742367_at) / RFU PRRT2 (11749266_a_at) / Fold change /veh PRRT2 (11749266_a_at) / RFU SNX32 (11753110_a_at) / Fold change /veh SNX32 (11753110_a_at) / RFU CDHR5 (11726645_a_at) / Fold change /veh CDHR5 (11726645_a_at) / RFU RCAN1 (11760418_a_at) / Fold change /veh RCAN1 (11760418_a_at) / RFU FAM167A (11723789_a_at) / Fold change /veh FAM167A (11723789_a_at) / RFU FAM26E (11764081_at) / Fold change /veh FAM26E (11764081_at) / RFU ISYNA1 (11749810_s_at) / Fold change /veh ISYNA1 (11749810_s_at) / RFU ACY1 (11761880_at) / Fold change /veh ACY1 (11761880_at) / RFU 11764098_at / Fold change /veh 11764098_at / RFU SAMD14 (11745864_x_at) / Fold change /veh SAMD14 (11745864_x_at) / RFU NPB (11741838_a_at) / Fold change /veh NPB (11741838_a_at) / RFU TMPRSS6 (11731388_a_at) / Fold change /veh TMPRSS6 (11731388_a_at) / RFU KRTAP10-2 (11738614_at) / Fold change /veh KRTAP10-2 (11738614_at) / RFU ARHGAP8 /// PRR5-ARHGAP8 (11727945_x_at) / Fold change /veh ARHGAP8 /// PRR5-ARHGAP8 (11727945_x_at) / RFU KRTAP5-7 /// NADSYN1 (11734609_at) / Fold change /veh KRTAP5-7 /// NADSYN1 (11734609_at) / RFU RASL12 (11751679_a_at) / Fold change /veh RASL12 (11751679_a_at) / RFU CDKN2B (11736163_a_at) / Fold change /veh CDKN2B (11736163_a_at) / RFU PRF1 (11729649_at) / Fold change /veh PRF1 (11729649_at) / RFU, ZNF638 /// ZNF638-IT1 / Fold change vs veh, ZNF638 /// ZNF638-IT1 / RFU, PANK3 / Fold change vs veh, PANK3 / RFU, SH3YL1 / Fold change vs veh, SH3YL1 / RFU, ZEB2 / Fold change vs veh, ZEB2 / RFU, NRIP1 / Fold change vs veh, NRIP1 / RFU, PTTG1IP / Fold change vs veh, PTTG1IP / RFU, CAPN2 / Fold change vs veh, CAPN2 / RFU, MED14 / Fold change vs veh, MED14 / RFU, SNORA58 / Fold change vs veh, SNORA58 / RFU, C1orf63 / Fold change vs veh, C1orf63 / RFU, LRRFIP1 / Fold change vs veh, LRRFIP1 / RFU, NDUFAF7 / Fold change vs veh, NDUFAF7 / RFU, SLC12A2 / Fold change vs veh, SLC12A2 / RFU, IBTK / Fold change vs veh, IBTK / RFU, ESF1 / Fold change vs veh, ESF1 / Fold change vs veh, TMEM50B / RFU, TAOK1 / Fold change vs veh, TAOK1 / RFU, ACBD3 / Fold change vs veh, ACBD3 / RFU, TMA16 / Fold change vs veh, TMA16 / RFU, RWDD3 / Fold change vs veh, RWDD3 / RFU, BCAT1 / Fold change vs veh, BCAT1 / RFU, EDEM3 / Fold change vs veh, EDEM3 / RFU, TMEM33 / Fold change vs veh, TMEM33 / RFU, WDR75 / Fold change vs veh, WDR75 / RFU, AHCTF1 / Fold change vs veh, AHCTF1 / RFU, TFRC / Fold change vs veh, TFRC / RFU, ZDHHC17 / Fold change vs veh, ZDHHC17 / RFU, NOM1 / Fold change vs veh, NOM1 / RFU, ARL8B / Fold change vs veh, ARL8B / RFU, ZBTB11 / Fold change vs veh, ZBTB11 / RFU, TAMM41 / Fold change vs veh, TAMM41 / RFU, KIAA1704 /// LOC100996395 / Fold change vs veh, KIAA1704 /// LOC100996395 / RFU, ING1 / Fold change vs veh, ING1 / RFU, TRMT61B / Fold change vs veh, TRMT61B / RFU, FUBP3 / Fold change vs veh, FUBP3 / RFU, TP53 / Fold change vs veh, TP53 / RFU, TNKS2 / Fold change vs veh, TNKS2 / RFU, ZFP14 / Fold change vs veh, ZFP14 / RFU, ACTR2 / Fold change vs veh, ACTR2 / RFU, PPP3R1 / Fold change vs veh, PPP3R1 / RFU, PIK3R1 / Fold change vs veh, PIK3R1 / RFU, HNRNPA1 / Fold change vs veh, HNRNPA1 / RFU, RNF170 / Fold change vs veh, RNF170 / RFU, ZNF28 / Fold change vs veh, ZNF28 / RFU, RNGTT / Fold change vs veh, RNGTT / RFU, OGT / Fold change vs veh, OGT / RFU, BRD1 / Fold change vs veh, BRD1 / RFU, MARS / Fold change vs veh, MARS / RFU, ZNF655 / Fold change vs veh, ZNF655 / RFU, FAHD1 / Fold change vs veh, FAHD1 / RFU, BDP1 / Fold change vs veh, BDP1 / RFU, LRRCC1 / Fold change vs veh, LRRCC1 / RFU, ARID1A / Fold change vs veh, ARID1A / RFU, ZNF146 / Fold change vs veh, ZNF146 / RFU, ZNF330 / Fold change vs veh, ZNF330 / RFU, GPN3 / Fold change vs veh, GPN3 / RFU, C9orf123 / Fold change vs veh, C9orf123 / RFU, N4BP2L2 / Fold change vs veh, N4BP2L2 / RFU, ARFIP1 / Fold change vs veh, ARFIP1 / RFU, FAM179B / Fold change vs veh, FAM179B / RFU, BCL10 / Fold change vs veh, BCL10 / RFU, UHRF1BP1L / Fold change vs veh, UHRF1BP1L / RFU, BET1 / Fold change vs veh, BET1 / RFU, CNOT2 / Fold change vs veh, CNOT2 / RFU, ZNF268 / Fold change vs veh, ZNF268 / Fold change vs veh, ZNF507 / RFU, DGCR2 / Fold change vs veh, DGCR2 / RFU, WDSUB1 / Fold change vs veh, WDSUB1 / Fold change vs veh, HSP90B1 /// MIR3652 / RFU, ADSS / Fold change vs veh, ADSS / RFU, GK / Fold change vs veh, GK / RFU, ZNF148 / Fold change vs veh, ZNF148 / RFU, TAF9 / Fold change vs veh, TAF9 / RFU, SLC1A5 / Fold change vs veh, SLC1A5 / RFU, SLMO2 / Fold change vs veh, SLMO2 / RFU, ABCC4 / Fold change vs veh, ABCC4 / RFU, LOC101060439 /// RAP1B / Fold change vs veh, LOC101060439 /// RAP1B / RFU, RFX7 / Fold change vs veh, RFX7 / RFU, GTPBP10 / Fold change vs veh, GTPBP10 / RFU, CNEP1R1 / Fold change vs veh, CNEP1R1 / RFU, BIVM-ERCC5 /// ERCC5 / Fold change vs veh, BIVM-ERCC5 /// ERCC5 / RFU, ILF3 / Fold change vs veh, ILF3 / RFU 11762660_at / Fold change /veh 11762660_at / RFU VCAN (11757783_s_at) / Fold change /veh VCAN (11757783_s_at) / RFU DDX43 (11728927_at) / Fold change /veh DDX43 (11728927_at) / RFU KRT8 (11758188_x_at) / Fold change /veh KRT8 (11758188_x_at) / RFU NKD1 (11759106_at) / Fold change /veh NKD1 (11759106_at) / RFU SRD5A1 (11742802_a_at) / Fold change /veh SRD5A1 (11742802_a_at) / RFU TPSAB1 /// TPSB2 (11721975_s_at) / Fold change /veh TPSAB1 /// TPSB2 (11721975_s_at) / RFU GSTM3 (11746129_a_at) / Fold change /veh GSTM3 (11746129_a_at) / RFU IL23R (11737362_x_at) / Fold change /veh IL23R (11737362_x_at) / RFU TMEM51 (11727254_a_at) / Fold change /veh TMEM51 (11727254_a_at) / RFU PIWIL2 (11732686_x_at) / Fold change /veh PIWIL2 (11732686_x_at) / RFU ORM1 (11744905_x_at) / Fold change /veh ORM1 (11744905_x_at) / RFU CCDC152 (11743942_at) / Fold change /veh CCDC152 (11743942_at) / RFU ECM1 (11717891_a_at) / Fold change /veh ECM1 (11717891_a_at) / RFU IL23R (11748794_a_at) / Fold change /veh IL23R (11748794_a_at) / RFU TNFAIP8L3 (11732012_x_at) / Fold change /veh TNFAIP8L3 (11732012_x_at) / RFU MBOAT4 (11741988_at) / Fold change /veh MBOAT4 (11741988_at) / RFU 11764193_at / Fold change /veh 11764193_at / RFU TMEM53 (11763286_at) / Fold change /veh TMEM53 (11763286_at) / RFU MAGEB2 (11727129_at) / Fold change /veh MAGEB2 (11727129_at) / RFU TMEM200A (11744735_a_at) / Fold change /veh TMEM200A (11744735_a_at) / RFU CCDC152 (11751479_a_at) / Fold change /veh CCDC152 (11751479_a_at) / RFU FAM211A (11726209_a_at) / Fold change /veh FAM211A (11726209_a_at) / RFU RGS16 (11746705_a_at) / Fold change /veh RGS16 (11746705_a_at) / RFU VCAN (11755009_s_at) / Fold change /veh VCAN (11755009_s_at) / RFU RHOB (11743442_s_at) / Fold change /veh RHOB (11743442_s_at) / RFU RGS16 (11720943_a_at) / Fold change /veh RGS16 (11720943_a_at) / RFU RGS16 (11720944_at) / Fold change /veh RGS16 (11720944_at) / RFU, VPS4B / Fold change vs veh, VPS4B / RFU, CREB1 / Fold change vs veh, CREB1 / RFU, DNAJC13 / Fold change vs veh, DNAJC13 / RFU, GNAQ / Fold change vs veh, GNAQ / RFU, CDK5R1 / Fold change vs veh, CDK5R1 / RFU, ZRANB3 / Fold change vs veh, ZRANB3 / RFU, CUL4A / Fold change vs veh, CUL4A / RFU, CCNY / Fold change vs veh, CCNY / RFU, UFL1 / Fold change vs veh, UFL1 / RFU, COG3 / Fold change vs veh, COG3 / RFU, DIAPH2 / Fold change vs veh, DIAPH2 / RFU, SKA2 / Fold change vs veh, SKA2 / RFU, AFF3 / Fold change vs veh, AFF3 / RFU, LMF1 / Fold change vs veh, LMF1 / RFU, IPO11 / Fold change vs veh, IPO11 / RFU, DFFB / Fold change vs veh, DFFB / RFU, FOXP1 / Fold change vs veh, FOXP1 / RFU, CARD8 / Fold change vs veh, CARD8 / RFU, STRN3 / Fold change vs veh, STRN3 / RFU, ADK / Fold change vs veh, ADK / RFU, RASSF2 / Fold change vs veh, RASSF2 / RFU, WIPF1 / Fold change vs veh, WIPF1 / RFU, LARP1B / Fold change vs veh, LARP1B / RFU, RASA1 / Fold change vs veh, RASA1 / RFU, RB1 / Fold change vs veh, RB1 / RFU, PPFIA1 / Fold change vs veh, PPFIA1 / RFU, MAT2A / Fold change vs veh, MAT2A / RFU, CCT5 / Fold change vs veh, CCT5 / RFU, WDR92 / Fold change vs veh, WDR92 / RFU, CUX1 / Fold change vs veh, CUX1 / RFU, TTC7A / Fold change vs veh, TTC7A / RFU, TMEM135 / Fold change vs veh, TMEM135 / RFU, DEPTOR / Fold change vs veh, DEPTOR / RFU, CPM / Fold change vs veh, CPM / RFU, DNAJB6 / Fold change vs veh, DNAJB6 / RFU, CACNA2D3 / Fold change vs veh, CACNA2D3 / RFU, DTX4 / Fold change vs veh, DTX4 / RFU, TFCP2 / Fold change vs veh, TFCP2 / RFU, GMCL1 /// GMCL1P1 / Fold change vs veh, GMCL1 /// GMCL1P1 / RFU, AEBP2 / Fold change vs veh, AEBP2 / RFU, SNHG1 /// SNORD22 /// SNORD25 /// SNORD26 /// SNORD27 /// SNORD28 /// SNORD29 /// SNORD31 / Fold change vs veh, SNHG1 /// SNORD22 /// SNORD25 /// SNORD26 /// SNORD27 /// SNORD28 /// SNORD29 /// SNORD31 / Fold change (Aza/veh), C12orf56 (ProbeSet 11735607_a_at) / Fold change (ACY-1035/veh), C12orf56 (ProbeSet 11735607_a_at) / Fold change (Aza/veh), FGFR1OP (ProbeSet 11751329_s_at) / Fold change (ACY-1035/veh), FGFR1OP (ProbeSet 11751329_s_at) / Fold change (Aza/veh), VPS36 (ProbeSet 11739960_a_at) / Fold change (ACY-1035/veh), VPS36 (ProbeSet 11739960_a_at) / RFU SYPL1 (11715823_x_at) / Fold change /veh SYPL1 (11715823_x_at) / RFU IGFBP7 (11715501_s_at) / Fold change /veh IGFBP7 (11715501_s_at) / RFU REEP3 (11722064_at) / Fold change /veh REEP3 (11722064_at) / RFU IGLL1 (11728026_x_at) / Fold change /veh IGLL1 (11728026_x_at): dose or concentration left out as unconfirmed
# Conditions: MV-4-11 cells, 48 hours
smiles,measurement,value
Nc1ncn([C@@H]2O[C@H](CO)[C@@H](O)[C@H]2O)c(=O)n1 [azacitidine],RFU PRSS12 (11739890_at),6.78 RFU
